Experimental data published in patent US20130345257A1, “COMPOSITION FOR LUPUS NEPHRITIS AND METHODS OF MAKING AND USING THE SAME” (The Regents of the University of California, priority 2012, published 2013).
Entries after “also recorded” stand apart in the source; their conditions may differ.

Assays:
Assay type in all cases: in vivo, mouse
[1] = test system: leukocyte subsets present in kidney; test: Leukocyte subsets in kidney of treated BWF1 mice by flow cytometry; design: Frequency of cells ± SEM: CD11c^+CD11b− (DC) / Frequency of cells ± SEM: CD11b^+Ly6C^+Ly6G− / Frequency of cells ± SEM: CD11b^+Ly6C^+Ly6G+ / Frequency of cells ± SEM: CD4+ / Frequency of cells ± SEM: CD8+ / Frequency of cells ± SEM: CD11b^+MDSC−(Mφ) / Frequency of cells ± SEM: CD11c^+CD11b+(DC): unit not given here; conditions: kidney, LAQ 25 mg/kg, MMF 100 mg/kg; for Frequency of cells ± SEM: CD19+: in % (unit assumed)
Experimental: Single cell suspensions of splenocytes or kidney cells were prepared using cell strainers (Fisher), followed by red blood cell lysis. Kidney lymphocytes were separated from connective tissue by centrifugation (15 minutes at 400g) in 30% Percoll (GE Healthcare). CD4^+CD25^− cells from spleen and kidney were isolated using the CD4^+CD25^+ regulatory T cell isolation kit according to manufacturer's protocol (Miltenyi). CD11b+ cells were isolated using EasySep mouse CD11b positive selection kit (StemCell Technologies), surface stained for Ly6C and Ly6G prior to sorting myeloid-derived suppressor cells (MDSC) using FACSAria II. Populations were >95% pure by FACS analysis.
Single-cell suspensions from spleen or kidneys were stained for extracellular markers for 20 min at 4° C. in PBS/1% FBS. Intracellular staining for Foxp3 and cytokines was performed using the Foxp3 Fixation/Permeabilization kit according to the manufacturer's protocol (eBioscience). Cells were acquired on a FACS LSR II (BD) and data was analyzed using Flowjo (Tree Star).

[2] = test system: BWF1 mice with anti-dsDNA and low proteinuria (PU^lo); test: Therapeutic treatment of BWF1 mice with anti-dsDNA and low proteinuria (PU^lo); conditions: LAQ 25 mg/kg, MMF 100 mg/kg
Experimental: Therapeutic Groups: a low proteinuria group)(PU^lo) consisted of mice with IgG anti-dsDNA detectable in serum and proteinuria ≦100 mg/dL, and a high proteinuria group (PU^hi) had proteinuria ≧300 mg/dL.
(§1) Proteinuria was evaluated weekly using Albustix (Siemens), serum creatinine using a commercial kit (Arbor Assays) and anti-dsDNA IgG antibodies by ELISA as described previously (10). See, e.g., FIGS. 1 and 2.
(§2) Kidney specimens of BWF1 mice (37 weeks of age in the prevention group or 7 and 11 weeks after institution of early or late therapies) were embedded in OCT compound and snap frozen. 4-5 μm an sections were air-dried, fixed with cold acetone and incubated with blocking buffer (anti-CD16/CD32 (1/50), 2% normal goat or rat serum, 2% BSA).
Histological analysis of glomerular pathology was done by an investigator blinded to treatment group and included acute inflammatory features (endocapillary hypercellularity, mesangial hypercellularity, cellular necrosis, cellular crescents, and interstitial inflammation), and chronic features (global glomerulosclerosis (GS), focal segmental glomerulosclerosis (FSGS), and interstitial fibrosis or tubular atrophy (IF/TA)). […] The weighted total score of the clinical features was based on this formula: [endocapillary hypercellularity+mesengial hypercellularity+(cellular necrosis*2)+(cellular crescents*2)+interstitial inflammation)/5]+(GS+FSGS+IFTA)/3, with maximum score 5.2. A minimum of 25 glomeruli, of at least 10 mice per group, were scored. Scores from each individual mouse were added and averaged to yield the glomerulonephritis score.

[3] = test system: lupus nephritis in BWF1 mice; test: Preventive treatment of pre-nephritic BWF1 mice (survival, proteinuria, creatinine, anti-dsDNA, renal histology, IgG/C3 deposition)
Experimental: Clinical and immune cell changes were compared in groups of 10-12 BWF1 female mice in the following groups: • Group 1: Water orally 3 times a week for 24 weeks. • Group 2: Laquinimod 1 mg/kg orally 3 times a week for 24 weeks. • Group 3: Laquinimod 25 mg/kg orally 3 times a week for 24 weeks. • Group 4: Mycophenolate Mofetil 30 mg/kg orally […] for 24 weeks. • Group 5: Mycophenolate Mofetil 100 mg/kg orally […] for 24 weeks (“MMF 100”).
Preventive Group: 11-week old (pre-nephritic) BWF1 female mice were treated orally 3 times a week with a) water; b) laquinimod at 1 mg/kg (LAQ1, low dose) or c) 25 mg/kg (LAQ25, high dose) (Teva Pharmaceutical); or 5 times a week with d) mycophenolate mofetil at 30 mg/kg (MMF30, low dose) or e) 100 mg/kg (MMF100, high dose).
as §1, §2
Immunoglobulin G and C3 complement glomerular deposition were investigated by incubation of cryosections with fluoroscein isothiocyanate (FITC)-conjugated goat anti-mouse IgG (1:50) (Sigma) or rat anti-mouse C3 (1:800) (Solulink) in blocking buffer for 2 hours at room temperature. Images were acquired using Nikon Eclipse TE2000-U microscope and MetaMorph 6.3 software (Sunnyvale, Calif.). Quantification of the area immunostained in tissue sections was made using the computer image analysis software ImageJ (rsbinfonihgov</>ij</>indexhtml). For histology, kidney sections were fixed in 10% formalin and 2 μm-paraffin sections were stained with H&E, PAS and methenamine silver (Jones) for histological analysis.
Histological analysis of glomerular pathology was done by an investigator blinded to treatment group and included acute inflammatory features (endocapillary hypercellularity, mesangial hypercellularity, cellular necrosis, cellular crescents, and interstitial inflammation), and chronic features (global glomerulosclerosis (GS), focal segmental glomerulosclerosis (FSGS), and interstitial fibrosis or tubular atrophy (IF/TA)). The severity of each feature was graded as 0 (absent), 1 (lesions involving up to 25% of the component evaluated), 2 (lesions in 26-50% evaluated) or 3 (lesions in >50%) in each field of the microscope at 400× magnification. The weighted total score of the clinical features was based on this formula: [endocapillary hypercellularity+mesengial hypercellularity+(cellular necrosis*2)+(cellular crescents*2)+interstitial inflammation)/5]+(GS+FSGS+IFTA)/3, with maximum score 5.2. A minimum of 25 glomeruli, of at least 10 mice per group, were scored. Scores from each individual mouse were added and averaged to yield the glomerulonephritis score.

[4] = Preventive, 25 weeks after treatment
[5] = Therapeutic (PU^lo), 10 wks after initiation of therapy

Compound: COc1c(C)c2c(c(O)c1C/C=C(\C)CCC(=O)OCCN1CCOCC1)C(=O)OC2 [MMF, mycophenolate mofetil, reference compound]
- Frequency of cells ± SEM: CD4+ [1, 4]: 19.4 ± 0.4
- Frequency of cells ± SEM: CD8+ [1, 4]: 8.8 ± 0.1
- Frequency of cells ± SEM: CD11b^+Ly6C^+Ly6G+ [1, 4]: 1.6 ± 0.2
- Frequency of cells ± SEM: CD11b^+Ly6C^+Ly6G− [1, 4]: 22.9 ± 0.8
- Frequency of cells ± SEM: CD11b^+MDSC−(Mφ) [1, 4]: 49.8 ± 0.7
- Frequency of cells ± SEM: CD11c^+CD11b+(DC) [1, 4]: 1.0 ± 0.1
- Frequency of cells ± SEM: CD11c^+CD11b− (DC) [1, 4]: 4.4 ± 0.3
- Frequency of cells ± SEM: CD19+ [1, 4]: 2.3 ± 0.2
- Frequency of cells ± SEM: CD4+ [1, 5]: 1.0 ± 0.1
- Frequency of cells ± SEM: CD8+ [1, 5]: 6.6 ± 0.2
- Frequency of cells ± SEM: CD11b^+Ly6C^+Ly6G+ [1, 5]: 1.9 ± 0.3
- Frequency of cells ± SEM: CD11b^+Ly6C^+Ly6G− [1, 5]: 22.4 ± 0.3
- Frequency of cells ± SEM: CD11b^+MDSC−(Mφ) [1, 5]: 45.7 ± 0.9
- Frequency of cells ± SEM: CD11c^+CD11b+(DC) [1, 5]: 0.6 ± 0.0
- Frequency of cells ± SEM: CD11c^+CD11b− (DC) [1, 5]: 1.3 ± 0.1
- Frequency of cells ± SEM: CD19+ [1, 5]: 7.2 ± 0.4
- Anti-dsDNA ([2]; PU^lo arm): not significantly decreased
- Increase of proteinuria ([2]; PU^lo arm): prevented increased proteinuria
- Rise in serum creatinine ([2]; PU^lo arm): prevented
- Survival ([2]; PU^lo arm): significantly prolonged survival
- Reduction of endo-capillary hypercellularity, interstitial inflammation, and focal segmental glomerulosclerosis ([2]; PU^lo mice): equally effective
- Survival vs. controls ([3]; BWF1 females treated orally for 24 weeks before disease, LAQ 1 and 25 mg/kg, MMF 100 mg/kg, p=0.028): better
- Survival, low dose treatment ([3]; LAQ 1 mg/kg 3 days a week, MMF 30 mg/kg 5 days a week, prior to anti-dsDNA and proteinuria, vs water): significantly better; also recorded: still alive at 45 weeks
- Chronic scarring (GS, FSGS, IFTA) in kidney ([3]; higher doses, treated before proteinuria, vs water): less
- Onset of proteinuria beyond 32 weeks up until about 42 weeks ([3]; low dose: LAQ 1 mg/kg 3 times a week, MMF 30 mg/kg): effective in delaying onset of proteinuria
- Serum/plasma IgG anti-dsDNA antibody levels ([3]; preventive treatment, LAQ 1 or 25 mg/kg, MMF 100 mg/kg, vs water): suppressed; also recorded: lower anti-DNA levels
- Prevention of proteinuria ([3]; preventive treatment, MMF 30 mg/kg, 18-week study period): did not
- Prevention of proteinuria ([3]; preventive treatment, both LAQ doses (1, 25 mg/kg), MMF 100 mg/kg): prevented proteinuria and prevented the appearance of proteinuria and none
- Kidney specimens (histology, glomerular IgG and C3 deposits) ([3]; preventive, LAQ 25 mg/kg, MMF 100 mg/kg, after more than 50% of controls developed high proteinuria): largely unremarkable
- Mice with proteinuria at 32 wks. of age ([3]; treated before disease, LAQ 1 and 25 mg/kg, MMF 100 mg/kg, water 50%, p<0.0001): zero and none
- Mean total histologic score (renal histology) ([3]; treated before disease, MMF 100 mg/kg, water 7.8, p<0.01): 0.9
- Glomerular deposition of Ig and C3 ([3]; treated prior to onset of clinical nephritis, vs water group p<0.001): in the normal range; also recorded: significantly decreased
